Source: patent US20080262025A1, “Processes for the Preparation of Zolpidem and its Hemitartrate” (priority 2004, published 2008)

Columns and labels:
[1] = Hygroscopicity: moisture absorption on exposure to atmospheric / normal storage conditions, stability studies; type: physicochemical; details: for hygroscopicity: normal storage conditions / stability studies
[2] = Moisture content by Karl Fischer titration; type: physicochemical
Method: • Differential scanning calorimetry plots were recorded using the following instrument and parameters: • DSC821 e, Mettler Toledo • Sample weight: 8-10 mg • Temperature range: 25-300° C. • Heating rate: 10° C./min • Nitrogen 20.0 mL/min • Number of holes in the crucible: 1 (d) TGA analysis was carried out using Perkin Elmer Instrument (e) Moisture content determination was carried out by Karl-Fischer titration technique using Mettler instrument.

Row | Compound | moisture absorbed after exposure to atmospheric conditions ([1]; after exposure to atmospheric conditions) | hygroscopicity [1] | moisture content after absorption of water ([2]; TGA and Karl Fischer analysis, after absorption of water) | moisture content, initial ([2]; TGA and Karl Fischer analysis, initially) | Moisture Content ([2]; product of Example 3, dried at 45 to 50° C. under reduced pressure)
1 | Cc1ccc(-c2nc3ccc(C)cn3c2CC(=O)N(C)C)cc1 [Form A, zolpidem hemitartrate] | up to 5 % w/w | very hygroscopic | up to 5% | about 1.0 % w/w | 
2 | Cc1ccc(-c2nc3ccc(C)cn3c2CC(=O)N(C)C)cc1 [Form I, zolpidem hemitartrate] |  | non-hygroscopic |  |  | 2.33 % w/w
